How the values were obtained:
panel of 442 kinases [1] = molecular target: T1, panel of 442 kinases (Homo sapiens, UniProt Q02156); assay type: binding; conditions: Compound Concentration 10 µM
T1 construct: purchased KINOMEscan
T1 sequence (Q02156 1-737): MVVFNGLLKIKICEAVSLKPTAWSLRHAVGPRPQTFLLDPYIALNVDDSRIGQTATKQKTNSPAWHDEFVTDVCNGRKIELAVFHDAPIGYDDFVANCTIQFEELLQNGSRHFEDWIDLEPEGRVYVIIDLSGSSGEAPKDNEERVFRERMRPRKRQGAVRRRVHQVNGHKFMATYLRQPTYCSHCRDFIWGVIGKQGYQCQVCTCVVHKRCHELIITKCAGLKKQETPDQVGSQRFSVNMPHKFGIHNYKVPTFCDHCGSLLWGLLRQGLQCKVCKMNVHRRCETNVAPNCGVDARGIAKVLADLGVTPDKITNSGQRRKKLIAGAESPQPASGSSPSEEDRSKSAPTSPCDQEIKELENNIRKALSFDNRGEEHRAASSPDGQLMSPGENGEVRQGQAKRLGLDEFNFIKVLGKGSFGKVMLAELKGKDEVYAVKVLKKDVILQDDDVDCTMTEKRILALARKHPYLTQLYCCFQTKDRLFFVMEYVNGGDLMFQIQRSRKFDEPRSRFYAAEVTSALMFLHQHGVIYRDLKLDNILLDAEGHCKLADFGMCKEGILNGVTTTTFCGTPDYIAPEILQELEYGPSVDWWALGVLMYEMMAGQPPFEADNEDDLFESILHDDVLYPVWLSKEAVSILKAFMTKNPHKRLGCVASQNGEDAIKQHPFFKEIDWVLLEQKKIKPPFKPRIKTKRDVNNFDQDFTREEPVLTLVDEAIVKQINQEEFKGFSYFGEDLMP
Text: (§1) We assessed the selectivity of members of this scaffold using the KINOMEscan methodology across a near comprehensive panel of 442 kinases [[18,27]].

panel of 442 kinases [2] = molecular target: T2, panel of 442 kinases (Homo sapiens, UniProt Q13163); assay type: binding; conditions: Compound Concentration 10 µM
T2 construct: purchased KINOMEscan
T2 sequence (Q13163 1-448): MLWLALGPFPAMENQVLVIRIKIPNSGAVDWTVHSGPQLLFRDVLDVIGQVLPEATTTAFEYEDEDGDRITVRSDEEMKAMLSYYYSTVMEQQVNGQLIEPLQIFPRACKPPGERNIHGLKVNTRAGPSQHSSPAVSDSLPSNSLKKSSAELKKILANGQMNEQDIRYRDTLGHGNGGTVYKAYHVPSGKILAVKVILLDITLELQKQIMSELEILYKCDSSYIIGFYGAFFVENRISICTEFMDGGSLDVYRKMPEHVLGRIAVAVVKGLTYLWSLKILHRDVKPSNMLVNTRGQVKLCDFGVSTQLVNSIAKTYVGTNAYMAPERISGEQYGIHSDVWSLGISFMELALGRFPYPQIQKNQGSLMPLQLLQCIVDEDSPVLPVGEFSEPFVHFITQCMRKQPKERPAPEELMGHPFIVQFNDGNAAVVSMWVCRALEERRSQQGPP
Text: as §1

Row | SMILES | KINOMEscan: PRKCE (panel of 442 kinases [1]) | KINOMEscan: MEK5 (panel of 442 kinases [2])
1 | COc1cc(C(=O)N2CCC(N3CCN(C)CC3)CC2)ccc1Nc1ncc2c(n1)N1CCc3cccc(c31)C(=O)N2C [Compound 24] | 72 | 28
2 | CCOc1cc(C(=O)N2CCC(N3CCN(C)CC3)CC2)ccc1Nc1ncc2c(n1)N(C1CCCC1)c1ccccc1C(=O)N2C [Compound 26] | 98 | 100
3 | COc1cc(C(=O)N2CCC(N3CCN(C)CC3)CC2)ccc1Nc1ncc2c(n1)N(C1CCCC1)c1ccccc1C(=O)N2C [Compound 25, 11-cyclopentyl-2-((2-methoxy-4-(4-(4-methylpiperazin-1-yl)piperidine-1-carbonyl)phenyl)amino)-5-methyl-5H-benzo[e]pyrimido[5,4-b][1,4]diazepin-6(11H)-one] | 79 | 83
4 | COc1cc(C(=O)N2CCC(N3CCN(C)CC3)CC2)ccc1Nc1ncc2c(n1)N(C)c1ccccc1C(=O)N2C [15 (LRRK2-IN-1)] | 100 | 85
